Some test systems named below: ACHN renal; COLO 205 colon; HOP-92 NSCLC; RXF 393 renal; SF-268 CNS; SF-539 CNS; SN12C renal; SW-620 colon; TK-10 renal; U251 CNS.
What all share (assay): DTP human tumour cell line panel, 48 h

Values joined by “and” are separate entries in the source; they are usually repeats but may differ in a detail not shown here. Equal entries are not always repeated.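 Cultured in 96-well plates, cells were exposed to test compound for 48 hours across five concentrations. At the GI50, growth is halved. TGI marks complete inhibition of growth.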 Where only a bound is given, the exact number is not on record here.

As usually defined, the GI50 is the concentration at which growth is held to half of that of the control. For orientation: TGI means the concentration giving total growth inhibition. A lower TGI goes with more potent growth arrest. As to `Fc1cccc(COc2ccc(Nc3ncnc4sc(-c5ccco5)cc34)cc2Cl)c1`, the GI50 in the test with ACHN renal, in the test with COLO 205 colon, in the test on HOP-92 NSCLC, with RXF 393 renal, in the test on SF-268 CNS and in the test on SF-539 CNS was more than 25 µM in each case. Moreover, the GI50 in the test on SN12C renal, with SW-620 colon, in the test with TK-10 renal and in the test with U251 CNS was more than 25 µM each time. Also, the TGI in the test with ACHN renal, with COLO 205 colon, in the test on HOP-92 NSCLC, in the test with RXF 393 renal, in the test with SF-268 CNS and with SF-539 CNS was more than 25 µM each time. Also, the TGI with SN12C renal, in the test on SW-620 colon, with TK-10 renal and in the test on U251 CNS was more than 25 µM each time.
Consider `CC1(C)C(=O)C(O)=CC2C1=CCC1C2(C)C(=O)CC2(C)C(C(C)(O)C(=O)CC(O)C(C)(C)O)C(O)CC12C` (stereo unspecified), for which the TGI in the test with ACHN renal was 16.2 µM; in the test with COLO 205 colon, more than 100 µM; with HOP-92 NSCLC, 4.56 µM; in the test with RXF 393 renal, 5.54 µM; in the test with SF-268 CNS, 9.76 µM; with SF-539 CNS, 5.98 µM. Moreover, the TGI in the test with SN12C renal is more than 90.4 µM; in the test on SW-620 colon, more than 50.7 µM; with TK-10 renal it was 5.94 µM; with U251 CNS it was 7.58 µM.
In the case of `CC[O-].CC[O-].O=C1C(=C([O-])c2ccccc2)C(=O)c2ccccc21.O=C1C(=C([O-])c2ccccc2)C(=O)c2ccccc21.[Ti+4]`, the GI50 in the test with ACHN renal is more than 100 µM; with COLO 205 colon it was 29.2 µM; in the test with HOP-92 NSCLC, 95.1 µM; in the test on RXF 393 renal, more than 100 µM; in the test on SF-268 CNS it was more than 10 µM; with SF-539 CNS it was more than 100 µM. In addition, the GI50 is 26.6 µM in the test with SN12C renal and more than 100 µM in the test with SW-620 colon. Further, the TGI was more than 100 µM in the test with ACHN renal; more than 100 µM in the test on COLO 205 colon; more than 100 µM with HOP-92 NSCLC; more than 100 µM in the test on RXF 393 renal; more than 10 µM in the test with SF-268 CNS; more than 100 µM in the test with SF-539 CNS. In addition, the TGI with SN12C renal was 99 µM; with SW-620 colon, more than 100 µM.
Consider `Clc1ccccc1NN(Cc1ccccn1)c1ccccc1Cl`, for which the TGI was more than 100 µM with ACHN renal; 31.3 µM with COLO 205 colon; 30.5 µM with HOP-92 NSCLC; 29.2 µM in the test with RXF 393 renal; 52.4 µM in the test on SF-268 CNS; 36.6 µM with SF-539 CNS. Further, the values for the TGI with SN12C renal, in the test on SW-620 colon and with U251 CNS were 33.3 µM, 37.7 µM and 29.6 µM, respectively.
For `O=c1nc(-c2ccccc2)c2c3c(cccn13)CCC2`, the total growth inhibition concentration (TGI) in the test with ACHN renal, in the test on HOP-92 NSCLC, with RXF 393 renal, with SF-268 CNS, in the test with SF-539 CNS and in the test with SN12C renal was more than 100 µM throughout. The TGI in the test with SW-620 colon, with TK-10 renal and in the test with U251 CNS was more than 100 µM throughout.
On to `CN1C2CC(C#N)C1C=CC2=O` (stereo unspecified), for which the GI50 in the test with ACHN renal was 22.8 µM and > 100 µM; in the test with HOP-92 NSCLC, 14.5 µM and 62.3 µM; in the test with RXF 393 renal, 16.7 µM and > 100 µM; in the test with SF-268 CNS, 27.2 µM and > 100 µM; in the test on SF-539 CNS, 18.6 µM and > 100 µM; in the test with SN12C renal, more than 100 µM. The GI50 in the test with SW-620 colon was 15.1 µM and 72.5 µM; with TK-10 renal, 40.5 µM and > 100 µM; with U251 CNS, 12.4 µM and 72.1 µM. For the same compound, the TGI was 76.9 µM and > 100 µM with ACHN renal; 31.4 µM and > 100 µM in the test on HOP-92 NSCLC; 36.1 µM and > 100 µM with RXF 393 renal; more than 100 µM in the test with SF-268 CNS; 43.2 µM and > 100 µM with SF-539 CNS; more than 100 µM in the test with SN12C renal. For the same compound, the TGI in the test with SW-620 colon is 43.7 µM and > 100 µM; in the test on TK-10 renal, more than 100 µM; in the test with U251 CNS it was 61.5 µM and > 100 µM.
On to `O=C1c2ccccc2N2OC3(N4CCCC4)CCCC3C12c1ccccc1` (stereo unspecified), for which the TGI in the test on ACHN renal, with COLO 205 colon, in the test on HOP-92 NSCLC, in the test on RXF 393 renal, with SF-268 CNS and with SF-539 CNS was more than 100 µM each time. Further, the TGI with SN12C renal, in the test on SW-620 colon and in the test on U251 CNS was more than 100 µM each time.
On to `COc1cc(Nc2ccnc(N3CCN(c4ccnc5cc(Cl)ccc45)CC3)n2)cc(OC)c1`, for which the GI50 in the test with ACHN renal was 2.04 µM; in the test on HOP-92 NSCLC, 0.431 µM; in the test on RXF 393 renal, 1.86 µM; in the test with SF-268 CNS, 3.05 µM; in the test with SF-539 CNS, 1.25 µM; with SN12C renal, 1.28 µM. Further, the GI50 in the test with SW-620 colon was 0.601 µM; in the test on TK-10 renal, 2.22 µM; in the test on U251 CNS it was 1.66 µM. The TGI in the test with ACHN renal is more than 100 µM; with HOP-92 NSCLC, 6.61 µM; with RXF 393 renal it was more than 100 µM; with SF-268 CNS, more than 100 µM; in the test on SF-539 CNS, 3.17 µM; in the test on SN12C renal, more than 100 µM. Moreover, the TGI in the test on SW-620 colon is more than 27.8 µM; in the test on TK-10 renal, more than 100 µM; with U251 CNS, more than 26.9 µM.
Turning to `O=C(CCc1nc(=S)[nH][nH]1)NC12CC3CC(CC(C3)C1)C2`, the TGI in the test with ACHN renal, in the test on COLO 205 colon, in the test on HOP-92 NSCLC, with RXF 393 renal, in the test on SF-539 CNS and in the test on SN12C renal was more than 100 µM each time. The TGI in the test on SW-620 colon, with TK-10 renal and with U251 CNS was more than 100 µM throughout.
As to `C[n+]1cc2c3c(ccc2c2ccc4cc5c(cc4c21)OCO5)OCO3`, the GI50 in the test with ACHN renal was 0.788 µM; in the test on COLO 205 colon it was 0.255 µM; with HOP-92 NSCLC, 0.584 µM; in the test with RXF 393 renal, 0.351 µM; in the test on SF-268 CNS, 0.489 µM; with SF-539 CNS it was 1.42 µM. Also, the GI50 was 0.174 µM in the test on SW-620 colon, 1.33 µM with TK-10 renal and 0.331 µM with U251 CNS. Besides, the TGI in the test on ACHN renal worked out at 2.09 µM; in the test on COLO 205 colon, 0.778 µM; with HOP-92 NSCLC it was 2.05 µM; in the test with RXF 393 renal, 1.32 µM; in the test on SF-268 CNS, 1.7 µM; in the test on SF-539 CNS, 3.02 µM. Further, the TGI is 0.36 µM in the test with SW-620 colon, 2.65 µM in the test on TK-10 renal and 1.28 µM in the test with U251 CNS.

These data come from PubChem BioAssay (NCI).
